From US20200239530A1, “COMPOUNDS AND METHODS OF MODULATING PROTEIN DEGRADATION” (Vividion Therapeutics, Inc., priority 2017, published 2020)

Legend:
[1] = target: T1, ABCD3 ATP-binding cassette sub-family D member 3 (Homo sapiens, UniProt P28288); assay: Cysteine liganding, probe competition
T1 construct: Cells were resuspended in cold PBS on ice and sonicated with a probe sonicator to achieve lysis; endogenous in cells
Protocol: Cells were resuspended in cold PBS on ice and sonicated with a probe sonicator to achieve lysis. 200 μL of lysate containing 5 mg/ml proteome was treated with 2 μL of 100× compound stock in a 2-mL deep-well plate. The treated lysate was subsequently incubate at 25° C. for 1 hr with shaking at 600 rpm. The treated lysate was further incubated with 2 μL of 10 mM desthiobiotin iodoacetamide probe at 25° C. for 1 hr with shaking at 600 rpm. Next, the lysate was further treat with 20 μL of solution of PBS containing 11 mM MgSO4 and 2.5% Turbonuclease stock and incubated at 25° C. for 20 minutes with shaking at 600 rpm. 1.7 mL ice-cold acetone was added to each well and incubated at −20° C. for 2 hr, followed by max speed (4200 rpm) spin for 45 min. Acetone was then decanted and the plates were blotted to remove acetone. The plates were then dried in open air for 20 minutes. After drying, the plates were then covered with foil seal and stored at −80° C. overnight.
The next day, samples were re-suspended in 90 μL of solution of 9M urea, 50 mM ammonium bicarbonate and 10 mM DTT by incubating at 65C for 20 min with shaking at 1500 rpm. Next, samples were cooled to 37° C. and then 10 μL of 500 mM iodoacetamide solution (92.48 mg/ml) was added. The samples were then incubated at 37° C. for 30 min with shaking at 600 rpm. […]

UniProt Q7Z6E9 = target: T2, UniProt Q7Z6E9 (Homo sapiens, UniProt Q7Z6E9); assay: Cysteine liganding, probe competition; assay type: binding; settings: read-out: KB02_100 uM_percent_inhibition
T2 construct: 200 μL of lysate containing 5 mg/ml proteome was treated with 2 μL of 100× compound stock; endogenous in cells
Description: (§1) The following 96-well sample prep protocol was used for sample preparation.

UniProt Q15366 = target: T3, UniProt Q15366 (Homo sapiens, UniProt Q15366); assay: Cysteine liganding, probe competition; assay type: binding; settings: read-out: KB02_500 uM_percent_inhibition
T3 construct: Cells were resuspended in cold PBS on ice and sonicated with a probe sonicator to achieve lysis; endogenous in cells
Description: as §1

UniProt Q96PU5 = target: T4, UniProt Q96PU5 (Homo sapiens, UniProt Q96PU5); assay: Cysteine liganding, probe competition; assay type: binding
T4 construct: Cells were resuspended in cold PBS on ice and sonicated with a probe sonicator to achieve lysis; endogenous in cells
Description: as §1

UniProt Q13114 = target: T5, UniProt Q13114 (Homo sapiens, UniProt Q13114); assay: Cysteine liganding, probe competition; assay type: binding; settings: read-out: percent_inhibition
T5 construct: 200 μL of lysate containing 5 mg/ml proteome was treated with 2 μL of 100× compound stock; endogenous in cells
Description: as §1

UniProt O15344 = target: T6, UniProt O15344 (Homo sapiens, UniProt O15344); assay: Cysteine liganding, probe competition; assay type: binding; settings: 500 uM
T6 construct: Cells were resuspended in cold PBS on ice and sonicated with a probe sonicator to achieve lysis; endogenous in cells
Description: as §1

A6QL63 = target: T7, A6QL63 (Homo sapiens, UniProt A6QL63); assay: Competitive cysteine profiling, probe competition (Table 2B); assay type: binding; settings: read-out: KB02_100 uM_percent_inhibition
T7 construct: 200 μL of lysate containing 5 mg/ml proteome was treated with 2 μL of 100× compound stock; endogenous in cells
Description: as §1

Q8N961 = target: T8, Q8N961 (Homo sapiens, UniProt Q8N961); assay: as above; assay type: binding
T8 construct: Cells were resuspended in cold PBS on ice and sonicated with a probe sonicator to achieve lysis; endogenous in cells
Description: as §1

UniProt P19474 = target: T9, UniProt P19474 (Homo sapiens, UniProt P19474); assay: Cysteine liganding, probe competition; assay type: binding; settings: read-out: KB05_100 uM_percent_inhibition
T9 construct: 200 μL of lysate containing 5 mg/ml proteome was treated with 2 μL of 100× compound stock; endogenous in cells
Description: as §1

UniProt Q96AX9 = target: T10, UniProt Q96AX9 (Homo sapiens, UniProt Q96AX9); assay: Cysteine liganding, probe competition; assay type: binding
T10 construct: Cells were resuspended in cold PBS on ice and sonicated with a probe sonicator to achieve lysis; endogenous in cells
Description: as §1

UniProt Q9NS56 = target: T11, UniProt Q9NS56 (Homo sapiens, UniProt Q9NS56); assay: Cysteine liganding, probe competition; assay type: binding
T11 construct: 200 μL of lysate containing 5 mg/ml proteome was treated with 2 μL of 100× compound stock; endogenous in cells
Description: as §1

UniProt Q9C037 = target: T12, UniProt Q9C037 (Homo sapiens, UniProt Q9C037); assay: Cysteine liganding, probe competition; assay type: binding; settings: read-out: KB05_100 uM_percent_inhibition
T12 construct: 200 μL of lysate containing 5 mg/ml proteome was treated with 2 μL of 100× compound stock; endogenous in cells
Description: as §1

UniProt Q9HAT8 = target: T13, UniProt Q9HAT8 (Homo sapiens, UniProt Q9HAT8); assay: Cysteine liganding, probe competition; assay type: binding
T13 construct: 200 μL of lysate containing 5 mg/ml proteome was treated with 2 μL of 100× compound stock; endogenous in cells
Description: as §1

UniProt Q13356 = target: T14, UniProt Q13356 (Homo sapiens, UniProt Q13356); assay: Cysteine liganding, probe competition; assay type: binding; settings: read-out: KB05_500 uM_percent_inhibition
T14 construct: 200 μL of lysate containing 5 mg/ml proteome was treated with 2 μL of 100× compound stock; endogenous in cells
Description: as §1

Q969K4 = target: T15, Q969K4 (Homo sapiens, UniProt Q969K4); assay: Competitive cysteine profiling, probe competition (Table 2B); assay type: binding; settings: read-out: KB05_100 uM_percent_inhibition
T15 construct: Cells were resuspended in cold PBS on ice and sonicated with a probe sonicator to achieve lysis; endogenous in cells
Description: as §1

UniProt P14373 = target: T16, UniProt P14373 (Homo sapiens, UniProt P14373); assay: Cysteine liganding, probe competition; assay type: binding; settings: 100 uM
T16 construct: 200 μL of lysate containing 5 mg/ml proteome was treated with 2 μL of 100× compound stock; endogenous in cells
Description: as §1

Q9Y576 = target: T17, Q9Y576 (Homo sapiens, UniProt Q9Y576); assay: Competitive cysteine profiling, probe competition (Table 2B); assay type: binding; settings: 100 uM
T17 construct: endogenous in cells
Description: as §1

T1 sequence (P28288 whole entry): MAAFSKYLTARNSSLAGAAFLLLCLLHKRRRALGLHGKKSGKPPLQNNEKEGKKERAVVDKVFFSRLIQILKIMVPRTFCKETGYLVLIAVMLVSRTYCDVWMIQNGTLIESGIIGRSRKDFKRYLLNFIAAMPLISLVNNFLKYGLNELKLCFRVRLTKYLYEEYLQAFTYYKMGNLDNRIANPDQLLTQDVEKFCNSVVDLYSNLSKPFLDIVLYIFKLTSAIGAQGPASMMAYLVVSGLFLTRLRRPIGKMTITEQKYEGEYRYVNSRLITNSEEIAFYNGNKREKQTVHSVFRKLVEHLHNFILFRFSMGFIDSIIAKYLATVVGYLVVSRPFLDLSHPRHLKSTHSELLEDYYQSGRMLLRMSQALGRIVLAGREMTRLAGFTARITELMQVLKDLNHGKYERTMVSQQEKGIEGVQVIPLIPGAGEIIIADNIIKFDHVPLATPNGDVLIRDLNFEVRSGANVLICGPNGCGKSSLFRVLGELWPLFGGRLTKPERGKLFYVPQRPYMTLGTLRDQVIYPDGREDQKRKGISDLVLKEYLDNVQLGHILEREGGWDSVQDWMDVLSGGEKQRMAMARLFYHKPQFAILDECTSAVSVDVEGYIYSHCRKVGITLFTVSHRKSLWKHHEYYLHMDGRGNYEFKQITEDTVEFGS
T4 sequence (Q96PU5 whole entry, change not shown): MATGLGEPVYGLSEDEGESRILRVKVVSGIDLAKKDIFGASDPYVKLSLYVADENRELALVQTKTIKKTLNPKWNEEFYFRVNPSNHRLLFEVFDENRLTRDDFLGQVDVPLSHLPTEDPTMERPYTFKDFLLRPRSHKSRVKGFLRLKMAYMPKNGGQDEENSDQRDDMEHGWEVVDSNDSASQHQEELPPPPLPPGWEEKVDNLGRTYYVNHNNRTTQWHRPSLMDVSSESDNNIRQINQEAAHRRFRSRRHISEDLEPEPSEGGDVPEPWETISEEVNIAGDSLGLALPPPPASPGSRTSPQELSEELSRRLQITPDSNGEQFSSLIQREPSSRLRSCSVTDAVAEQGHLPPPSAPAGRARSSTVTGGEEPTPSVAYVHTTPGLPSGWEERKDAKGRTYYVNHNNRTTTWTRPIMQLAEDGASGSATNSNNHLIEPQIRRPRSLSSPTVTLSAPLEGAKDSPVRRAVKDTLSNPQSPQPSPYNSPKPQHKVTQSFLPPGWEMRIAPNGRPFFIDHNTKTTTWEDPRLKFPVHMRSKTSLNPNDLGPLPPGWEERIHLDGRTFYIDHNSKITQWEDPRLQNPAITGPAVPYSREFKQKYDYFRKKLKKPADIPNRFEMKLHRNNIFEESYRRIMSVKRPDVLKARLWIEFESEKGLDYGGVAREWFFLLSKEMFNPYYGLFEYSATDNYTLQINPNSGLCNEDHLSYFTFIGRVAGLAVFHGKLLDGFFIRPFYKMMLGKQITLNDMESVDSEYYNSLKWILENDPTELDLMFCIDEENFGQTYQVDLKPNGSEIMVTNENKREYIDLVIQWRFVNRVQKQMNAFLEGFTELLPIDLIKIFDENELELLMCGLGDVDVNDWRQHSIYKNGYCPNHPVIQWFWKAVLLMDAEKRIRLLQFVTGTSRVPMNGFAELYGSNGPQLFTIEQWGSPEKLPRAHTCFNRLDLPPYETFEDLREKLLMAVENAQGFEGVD
T11 sequence (Q9NS56 whole entry, change not shown): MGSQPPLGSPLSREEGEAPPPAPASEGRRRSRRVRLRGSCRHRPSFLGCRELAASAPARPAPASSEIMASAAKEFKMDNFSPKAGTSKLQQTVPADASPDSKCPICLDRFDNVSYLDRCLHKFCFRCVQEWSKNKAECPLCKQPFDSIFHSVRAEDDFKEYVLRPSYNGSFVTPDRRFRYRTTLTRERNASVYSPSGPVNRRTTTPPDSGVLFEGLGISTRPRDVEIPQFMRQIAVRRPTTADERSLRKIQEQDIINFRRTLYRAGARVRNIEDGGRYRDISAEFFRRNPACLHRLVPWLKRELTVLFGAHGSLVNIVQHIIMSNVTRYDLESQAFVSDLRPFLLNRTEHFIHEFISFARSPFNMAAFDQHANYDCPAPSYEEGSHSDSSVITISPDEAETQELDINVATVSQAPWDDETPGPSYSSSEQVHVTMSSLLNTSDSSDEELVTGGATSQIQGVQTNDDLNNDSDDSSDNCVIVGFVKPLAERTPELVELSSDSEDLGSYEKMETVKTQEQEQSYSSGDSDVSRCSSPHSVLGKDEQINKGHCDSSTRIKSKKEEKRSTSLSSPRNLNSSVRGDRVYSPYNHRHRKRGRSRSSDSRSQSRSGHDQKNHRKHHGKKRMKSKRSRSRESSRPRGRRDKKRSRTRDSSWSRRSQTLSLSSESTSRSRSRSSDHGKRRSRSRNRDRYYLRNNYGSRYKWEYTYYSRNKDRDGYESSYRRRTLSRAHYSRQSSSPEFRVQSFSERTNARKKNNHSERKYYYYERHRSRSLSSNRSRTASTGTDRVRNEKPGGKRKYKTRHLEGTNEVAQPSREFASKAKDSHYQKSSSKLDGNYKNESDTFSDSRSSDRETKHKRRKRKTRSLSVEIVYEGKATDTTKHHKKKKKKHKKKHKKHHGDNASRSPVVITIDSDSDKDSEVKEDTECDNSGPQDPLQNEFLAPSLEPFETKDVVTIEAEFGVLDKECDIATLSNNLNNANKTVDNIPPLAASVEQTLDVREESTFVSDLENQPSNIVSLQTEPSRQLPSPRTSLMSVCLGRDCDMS
T13 sequence (Q9HAT8 whole entry, change not shown): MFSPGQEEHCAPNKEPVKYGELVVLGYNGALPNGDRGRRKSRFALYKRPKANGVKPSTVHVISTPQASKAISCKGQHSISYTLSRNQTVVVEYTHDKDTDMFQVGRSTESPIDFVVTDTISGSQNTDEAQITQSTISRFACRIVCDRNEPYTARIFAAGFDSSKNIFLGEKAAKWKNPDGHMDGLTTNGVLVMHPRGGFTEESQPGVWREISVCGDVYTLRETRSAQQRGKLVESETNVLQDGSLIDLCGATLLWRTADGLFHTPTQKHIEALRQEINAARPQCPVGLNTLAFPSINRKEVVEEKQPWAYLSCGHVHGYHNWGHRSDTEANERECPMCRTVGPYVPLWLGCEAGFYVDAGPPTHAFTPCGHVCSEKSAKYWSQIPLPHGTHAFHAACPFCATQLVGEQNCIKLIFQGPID
T10 sequence (Q96AX9 whole entry, change not shown): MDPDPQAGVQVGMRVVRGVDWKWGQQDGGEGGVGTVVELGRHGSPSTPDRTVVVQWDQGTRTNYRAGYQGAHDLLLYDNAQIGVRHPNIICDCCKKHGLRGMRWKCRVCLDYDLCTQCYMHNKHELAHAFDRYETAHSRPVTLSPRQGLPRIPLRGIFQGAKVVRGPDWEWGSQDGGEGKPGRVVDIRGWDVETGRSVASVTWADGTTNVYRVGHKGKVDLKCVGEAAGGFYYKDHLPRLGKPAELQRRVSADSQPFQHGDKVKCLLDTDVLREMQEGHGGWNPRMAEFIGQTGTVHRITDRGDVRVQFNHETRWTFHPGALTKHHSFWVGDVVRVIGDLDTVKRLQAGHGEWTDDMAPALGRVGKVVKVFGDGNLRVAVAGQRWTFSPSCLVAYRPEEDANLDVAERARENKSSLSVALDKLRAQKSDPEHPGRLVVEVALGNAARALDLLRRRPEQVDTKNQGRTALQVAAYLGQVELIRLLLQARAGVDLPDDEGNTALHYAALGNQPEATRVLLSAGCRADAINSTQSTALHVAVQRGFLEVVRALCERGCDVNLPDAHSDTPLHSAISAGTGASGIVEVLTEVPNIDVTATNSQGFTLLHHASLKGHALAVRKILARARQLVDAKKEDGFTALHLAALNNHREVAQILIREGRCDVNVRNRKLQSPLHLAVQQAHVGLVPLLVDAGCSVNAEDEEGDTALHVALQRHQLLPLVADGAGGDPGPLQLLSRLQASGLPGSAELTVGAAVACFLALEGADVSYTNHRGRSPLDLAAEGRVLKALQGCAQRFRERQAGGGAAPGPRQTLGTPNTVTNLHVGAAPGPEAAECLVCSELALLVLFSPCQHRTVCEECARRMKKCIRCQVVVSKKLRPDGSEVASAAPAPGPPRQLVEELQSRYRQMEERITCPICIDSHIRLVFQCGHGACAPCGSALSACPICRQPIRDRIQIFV
T8 sequence (Q8N961 whole entry): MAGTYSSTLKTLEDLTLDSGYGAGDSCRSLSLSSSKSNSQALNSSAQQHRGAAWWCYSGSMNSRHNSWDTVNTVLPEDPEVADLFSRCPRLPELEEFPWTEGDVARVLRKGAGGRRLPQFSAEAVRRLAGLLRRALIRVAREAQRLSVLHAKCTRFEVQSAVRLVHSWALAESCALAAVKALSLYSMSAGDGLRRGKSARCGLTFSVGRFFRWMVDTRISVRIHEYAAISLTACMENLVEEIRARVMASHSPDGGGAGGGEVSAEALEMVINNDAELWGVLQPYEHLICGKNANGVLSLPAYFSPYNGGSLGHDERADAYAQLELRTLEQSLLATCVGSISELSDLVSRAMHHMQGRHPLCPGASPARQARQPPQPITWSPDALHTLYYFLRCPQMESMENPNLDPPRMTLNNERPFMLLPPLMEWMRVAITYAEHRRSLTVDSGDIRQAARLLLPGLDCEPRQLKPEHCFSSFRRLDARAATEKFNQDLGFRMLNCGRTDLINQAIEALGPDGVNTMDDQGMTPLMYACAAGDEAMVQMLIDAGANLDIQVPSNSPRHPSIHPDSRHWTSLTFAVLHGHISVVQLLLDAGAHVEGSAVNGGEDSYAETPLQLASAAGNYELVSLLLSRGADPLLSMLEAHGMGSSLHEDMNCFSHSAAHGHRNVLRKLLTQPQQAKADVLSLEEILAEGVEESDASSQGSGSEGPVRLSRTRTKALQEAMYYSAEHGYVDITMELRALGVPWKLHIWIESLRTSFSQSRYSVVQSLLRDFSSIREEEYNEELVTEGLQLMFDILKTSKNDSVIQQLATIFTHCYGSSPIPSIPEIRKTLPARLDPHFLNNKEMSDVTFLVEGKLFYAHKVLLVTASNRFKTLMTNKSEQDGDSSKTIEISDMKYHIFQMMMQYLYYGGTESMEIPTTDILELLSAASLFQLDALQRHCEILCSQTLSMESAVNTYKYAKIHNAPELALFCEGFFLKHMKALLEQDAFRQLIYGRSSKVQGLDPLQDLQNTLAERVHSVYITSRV

For COc1ccc2c(c1)CCCN2C(=O)CCl [KB02], the Liganded ([1]; ABCD3 Res# 472, uniprot P28288) was “YES”, the Liganded ([1]; ABCD3 Res# 477, uniprot P28288) was “YES” and the inhibition at 100 µM (UniProt Q7Z6E9) was 23%. The inhibition at 500 µM (UniProt Q15366) was 45%, the percent inhibition (UniProt Q96PU5; 100 uM) was 33% and the inhibition at 100 µM (UniProt Q96PU5; read-out: percent inhibition) was 30%. For the same compound, the inhibition at 100 µM (UniProt Q13114) was 33%, the percent inhibition (UniProt O15344) was 24% and the inhibition at 100 µM (A6QL63) was 9%. For the same compound, the “KB02_100 uM_percent_inhibition” value (Q8N961; 100 uM) was 60% and the inhibition at 100 µM (Q8N961; read-out: KB02_100 uM_percent_inhibition) was 52%.
Work on C=CC(=O)N(c1ccccc1)c1ccc(Br)cc1 [KB05] yielded an inhibition at 100 µM (UniProt P19474) of 39%, a percent inhibition (UniProt Q96AX9; 100 uM) of 9% and an inhibition at 100 µM (UniProt Q96AX9; read-out: percent inhibition) of 11%. The percent_inhibition (UniProt Q9NS56; 100 uM) was 11%, the inhibition at 100 µM (UniProt Q9NS56; read-out: percent_inhibition) was 13% and the inhibition at 100 µM (UniProt Q9C037) was 11%. For the same compound, the inhibition at 100 µM (UniProt Q9HAT8; 100 uM, read-out: KB05_100 uM_percent_inhibition) was 15%, the inhibition at 500 µM (UniProt Q9HAT8; 500 uM, read-out: KB05_500 uM_percent_inhibition) was 63% and the inhibition at 500 µM (UniProt Q13356) was 69%. For the same compound, the inhibition at 100 µM (Q969K4) was 3%.
With O=C(CCl)Nc1cc(C(F)(F)F)cc(C(F)(F)F)c1 [KBO3] the “KB03_100 uM_percent_inhibition” value (UniProt P14373) was 13% and the “KB03_100 uM_percent_inhibition” value (Q9Y576) was 51%.
